The NIST ThermoML archive (doi:10.1021/je700710d)
Numbers after ± are expanded uncertainties.

Settings: 298.15 K, 101.33 kPa, Liquid; for viscosity: Capillary tube (Ostwald / Ubbelohde) method

viscosity [mPa·s] | mass density (Vibrating tube method) [kg/m3] | mass density [kg/m3] | SMILES
97.58 ± 4 | 1237.63 ± 8.3 |  | CCOS(=O)(=O)[O-].CCn1cc[n+](C)c1 [1-ethyl-3-methylimidazolium ethyl sulfate]
1.082 ± 0.009 |  | 785.46 ± 0.47 | CCO [ethanol]
